Assay results: patent publication US6043037A, “Rapid method for measuring clastogenic fingerprints using fluorescence in situ hybridization” (The Regents of the University of California, priority 1997, dated 2000)

Key:
human lymphocytes [1] = assay: S ratio measured by FISH in lymphocytes of humans exposed in vivo (benzene workers, tritium worker)
From the text: Except where noted, all data analyzed were obtained using FISH. Identification and scoring of chromosome exchange aberrations using chromosome painting to generate additional data employed the methods of J. M. Lucas, et al., Rapid translocation frequency analysis in humans decades after exposure to ionizing radiation, Int'l. […] The chromosome exchange aberrations scored here were apparently simple (AS) exchange-type painting patterns.
The pattern resembles that of translocations. An incomplete apparently simple (AS) translocation pattern resembles that of an incomplete reciprocal translocation where the solid painted fragment contains one centromere. These aberrations are those translocations where reciprocity of the exchange event is not registered, either because the exchanged is actually incomplete, or because one of the exchanges segments involves the extreme, unpainted, terminal part of the arm.
Incomplete apparently simple translocations were recognized as bicolor chromosome derivatives, where the centromere resides on the unpainted segment.
Where possible, data were combined, and in some cases, additional scoring was performed to improve statistics. The blind scoring of coded photomicrographs was performed by technicians unfamiliar with the project goal. Photomicrographs were either reanalyzed from previous studies, or new photomicrographs were analyzed for this study.
The significance estimate for testing the equality of S-ratios between any two populations compared here was calculated by a likelihood ratio test using a Generalized Linear Model (GLM) on two nested hypotheses. The four outcomes were assumed to be distributed as independent Poisson random variates with a logarithmic link function. The null hypothesis included terms for offset, population and outcome type. The alternative included an additional interaction term. […]

human lymphocytes [2] = assay: S ratio (apparently simple translocations / incompletes) measured by FISH after in vitro exposure to clastogenic agents; type: cell-based
Method: Identification and scoring of chromosome exchange aberrations was performed using FISH as described in Lucas, et al., Rapid translocation frequency analysis in humans decades after exposure to ionizing radiationi, Int'l. J. Radiat. Biol., 62:53-63 (1992). The scoring criteria used (apparently […] exchange-type painting pattern) was equivalent to those described in Simpson, et al. Estimating the true frequency of X-ray-induced complex chromosome exchanges using fluorescence in situ hybridization, Int'l. J. Radiat. Biol., 67:37-45 (1995). Only apparently simple translocations (ASTs) and dicentrics (ASD's) were used to calculate F ratios because equality for translocations and dicentrics has been shown only for AST's and ASD's mathematically (Lucas, et al., Int'l. J. Radiat. Biol., 69:145-153 (1996) and experimentally (Simpson, et al., Int'l. J. Radiat. Biol., 67:37-45 (1995); Kovacs et al., Radiation Research, 137:34-43. (1994). The translocation frequency measured by FISH was scaled to full-genome equivalents using the formula in Lucas, et al., Int'l. J. Radiat. Biol., 62:53-63 (1992), herein by reference. In brief, the formula relates the translocation frequency measured by FISH, Fp, to the genomic translocation frequencies, FG, through the fraction of the genome covered by the probes, fp, as follows:
Cells were irradiated with ^60 Co and ^137 Cs gamma rays in order to produce aberrations and detect the frequency of their occurance. Irradiation of cells with ^60 Co and ^137 Cs gamma rays has been described elsewhere. Lucas, J. N., et al., Rapid determination of human chromosome translocation frequency using a pair of chromosome-specific DNA probes, Int'l. J. Radiat. Biol., 56:35-44 (1989). […]
Except where noted, all data analyzed were obtained using FISH. […] The chromosome exchange aberrations scored here were apparently simple (AS) exchange-type painting patterns. Simpson, P. J. and Savage, J. R. K., Estimating the true frequency of X-ray-induced complex chromosome exchanges using fluorescence in situ hybridization, Int'l. […]

[3] = 20 benzene workers with history of benzene poisoning, 18,583 cells
[4] = in vitro exposure, 1800 cells (bleomycin), 5,809 cells (tritium, 0.6 Gy)

Molecule | ASTs (apparently simple / complete translocations) (human lymphocytes [1]; [3]) | Inc (incomplete apparently simple translocations) (human lymphocytes [1]; [3]) | S ratio compared with low-LET radiation (human lymphocytes [1]; benzene workers, vs low-LET radiation) | ASTs (apparently simple translocations) (human lymphocytes [2]; [4]) | Inc (incomplete apparently simple translocations) (human lymphocytes [2]; [4]) | S ratio compared with low-LET radiation (human lymphocytes [2]; in vitro, vs low-LET radiation)
c1ccccc1 [Benzene, benzene] | 50 | 25 | significantly lower than those measured for low-LET radiation |  |  | 
bleomycin |  |  |  | 49 | 21 | significantly lower than those measured for low-LET radiation
